Read-outs that look alike come from different tables or passages of the source.
Tests used:
K-562 = assay: NCI 60 cell line five dose, Leukemia
M14 = assay: NCI 60 cell line five dose, Melanoma
SK-MEL-2 = assay: NCI 60 cell line five dose, Melanoma
SK-MEL-28 = assay: NCI 60 cell line five dose, Melanoma
UACC-62 = assay: NCI 60 cell line five dose, Melanoma
SF-268 = assay: NCI 60 cell line five dose, CNS Cancer
SNB-75 = assay: NCI 60 cell line five dose, CNS Cancer
HCT-15 = assay: NCI 60 cell line five dose, Colon Cancer
SW-620 = assay: NCI 60 cell line five dose, Colon Cancer
786-0 = assay: NCI 60 cell line five dose, Renal Cancer
RXF 393 = assay: NCI 60 cell line five dose, Renal Cancer
UO-31 = assay: NCI 60 cell line five dose, Renal Cancer
MCF7 = assay: NCI 60 cell line five dose, Breast Cancer
HS 578T = assay: NCI 60 cell line five dose, Breast Cancer; details: for Percent Growth: HS578T
MDA-MB-468 = assay: NCI 60 cell line five dose, Breast Cancer
SK-OV-3 = assay: NCI 60 cell line five dose, Ovarian Cancer
PC-3 = assay: NCI 60 cell line five dose, Prostate Cancer
DU-145 = assay: NCI 60 cell line five dose, Prostate Cancer
NCI-H322M = assay: NCI 60 cell line five dose, Non-Small Cell Lung Cancer
NCI-H522 = assay: as above

SMILES: C=C1C(=O)O[C@H]2[C@H]1CC/C(COC(=O)NCCCCNC(=O)OC/C1=C/CC[C@@]3(C)O[C@H]3[C@H]3OC(=O)C(=C)[C@@H]3CC1)=C\CC[C@@]1(C)O[C@@H]21 [JVM 3-54, bis(((1aR,7aS,10aS,10bS,E)-1a-Methyl-8-methylene-9-oxo-1a,2,3,6,7,7a,8,9,10a,10b-decahydrooxireno[2′,3′:9,10]cyclodeca[1,2-b]furan-5-yl)methyl)butane-1,4-diyldicarbamate]
- GI50 (HL-60(TB)): 0.256 µM
- TGI (HL-60(TB)): 1.08 µM
- Percent Growth (HL-60(TB); Log10 Concentration −4.0): −38%
- Percent Growth (HL-60(TB); Log10 Concentration −5.0): −41%
- Percent Growth (HL-60(TB); Log10 Concentration −6.0): 1%
- Percent Growth (HL-60(TB); Log10 Concentration −7.0): 84%
- Percent Growth (HL-60(TB); Log10 Concentration −8.0): 962%
- CC50 (HL-60(TB); read-out: LC50): > 100 µM
- GI50 (K-562): 0.665 µM
- TGI (K-562): 10.4 µM
- Percent Growth (K-562; Log10 Concentration −4.0): −46%
- Percent Growth (K-562; Log10 Concentration −5.0): 1%
- Percent Growth (K-562; Log10 Concentration −6.0): 40%
- Percent Growth (K-562; Log10 Concentration −7.0): 96%
- Percent Growth (K-562; Log10 Concentration −8.0): 101%
- CC50 (K-562; read-out: LC50): > 100 µM
- GI50 (M14): 1.97 µM
- TGI (M14): 4.82 µM
- Percent Growth (M14; Log10 Concentration −4.0): −84%
- Percent Growth (M14; Log10 Concentration −5.0): −41%
- Percent Growth (M14; Log10 Concentration −6.0): 88%
- Percent Growth (M14; Log10 Concentration −7.0): 88%
- Percent Growth (M14; Log10 Concentration −8.0): 94%
- CC50 (M14; read-out: LC50): 16.3 µM
- GI50 (SK-MEL-2): 1.77 µM
- TGI (SK-MEL-2): 4.89 µM
- Percent Growth (SK-MEL-2; Log10 Concentration −4.0): −67%
- Percent Growth (SK-MEL-2; Log10 Concentration −5.0): −35%
- Percent Growth (SK-MEL-2; Log10 Concentration −6.0): 78%
- Percent Growth (SK-MEL-2; Log10 Concentration −7.0): 89%
- Percent Growth (SK-MEL-2; Log10 Concentration −8.0): 101%
- CC50 (SK-MEL-2; read-out: LC50): 29.3 µM
- GI50 (SK-MEL-28): 0.529 µM
- TGI (SK-MEL-28): 2.3 µM
- Percent Growth (SK-MEL-28; Log10 Concentration −4.0): −73%
- Percent Growth (SK-MEL-28; Log10 Concentration −5.0): −58%
- Percent Growth (SK-MEL-28; Log10 Concentration −6.0): 33%
- Percent Growth (SK-MEL-28; Log10 Concentration −7.0): 94%
- Percent Growth (SK-MEL-28; Log10 Concentration −8.0): 100%
- CC50 (SK-MEL-28; read-out: LC50): 8.08 µM
- GI50 (UACC-62): 0.753 µM
- TGI (UACC-62): 2.5 µM
- Percent Growth (UACC-62; Log10 Concentration −4.0): −86%
- Percent Growth (UACC-62; Log10 Concentration −5.0): −67%
- Percent Growth (UACC-62; Log10 Concentration −6.0): 44%
- Percent Growth (UACC-62; Log10 Concentration −7.0): 93%
- Percent Growth (UACC-62; Log10 Concentration −8.0): 95%
- CC50 (UACC-62; read-out: LC50): 7.06 µM
- GI50 (SF-268): 3.18 µM
- TGI (SF-268): 12.6 µM
- Percent Growth (SF-268; Log10 Concentration −4.0): −74%
- Percent Growth (SF-268; Log10 Concentration −5.0): 8%
- Percent Growth (SF-268; Log10 Concentration −6.0): 92%
- Percent Growth (SF-268; Log10 Concentration −7.0): 97%
- Percent Growth (SF-268; Log10 Concentration −8.0): 97%
- CC50 (SF-268; read-out: LC50): 51 µM
- GI50 (SNB-75): 2.19 µM
- TGI (SNB-75): 16.5 µM
- Percent Growth (SNB-75; Log10 Concentration −4.0): −65%
- Percent Growth (SNB-75; Log10 Concentration −5.0): 18%
- Percent Growth (SNB-75; Log10 Concentration −6.0): 67%
- Percent Growth (SNB-75; Log10 Concentration −7.0): 64%
- Percent Growth (SNB-75; Log10 Concentration −8.0): 70%
- CC50 (SNB-75; read-out: LC50): 66.3 µM
- GI50 (HCT-15): 5.61 µM
- TGI (HCT-15): 20.8 µM
- Percent Growth (HCT-15; Log10 Concentration −4.0): 79%
- Percent Growth (HCT-15; Log10 Concentration −5.0): 37%
- Percent Growth (HCT-15; Log10 Concentration −6.0): 90%
- Percent Growth (HCT-15; Log10 Concentration −7.0): 94%
- Percent Growth (HCT-15; Log10 Concentration −8.0): 96%
- CC50 (HCT-15; read-out: LC50): 56.3 µM
- GI50 (SW-620): 0.586 µM
- TGI (SW-620): 2.04 µM
- Percent Growth (SW-620; Log10 Concentration −4.0): −72%
- Percent Growth (SW-620; Log10 Concentration −5.0): −79%
- Percent Growth (SW-620; Log10 Concentration −6.0): 35%
- Percent Growth (SW-620; Log10 Concentration −7.0): 98%
- Percent Growth (SW-620; Log10 Concentration −8.0): 100%
- CC50 (SW-620; read-out: LC50): 5.56 µM
- GI50 (786-0): 1.99 µM
- TGI (786-0): 4.25 µM
- Percent Growth (786-0; Log10 Concentration −4.0): −91%
- Percent Growth (786-0; Log10 Concentration −5.0): −56%
- Percent Growth (786-0; Log10 Concentration −6.0): 95%
- Percent Growth (786-0; Log10 Concentration −7.0): 91%
- Percent Growth (786-0; Log10 Concentration −8.0): 98%
- CC50 (786-0; read-out: LC50): 9.11 µM
- GI50 (RXF 393): 1.44 µM
- TGI (RXF 393): 3.36 µM
- Percent Growth (RXF 393; Log10 Concentration −4.0): −100%
- Percent Growth (RXF 393; Log10 Concentration −5.0): −64%
- Percent Growth (RXF 393; Log10 Concentration −6.0): 71%
- Percent Growth (RXF 393; Log10 Concentration −7.0): 95%
- Percent Growth (RXF 393; Log10 Concentration −8.0): 100%
- CC50 (RXF 393; read-out: LC50): 7.84 µM
- GI50 (UO-31): 7.61 µM
- TGI (UO-31): 20.9 µM
- Percent Growth (UO-31; Log10 Concentration −4.0): −95%
- Percent Growth (UO-31; Log10 Concentration −5.0): 45%
- Percent Growth (UO-31; Log10 Concentration −6.0): 88%
- Percent Growth (UO-31; Log10 Concentration −7.0): 84%
- Percent Growth (UO-31; Log10 Concentration −8.0): 86%
- CC50 (UO-31; read-out: LC50): 47.7 µM
- TGI (MCF7): 1.8 µM
- Percent Growth (MCF7; Log10 Concentration −4.0): −42%
- Percent Growth (MCF7; Log10 Concentration −5.0): −69%
- Percent Growth (MCF7; Log10 Concentration −6.0): 24%
- Percent Growth (MCF7; Log10 Concentration −7.0): 87%
- Percent Growth (MCF7; Log10 Concentration −8.0): 92%
- GI50 (HS 578T; HS 578T): 2.54 µM
- TGI (HS 578T; HS 578T): 8.14 µM
- Percent Growth (HS 578T; Log10 Concentration −4.0): −27%
- Percent Growth (HS 578T; Log10 Concentration −5.0): −9%
- Percent Growth (HS 578T; Log10 Concentration −6.0): 90%
- Percent Growth (HS 578T; Log10 Concentration −7.0): 92%
- Percent Growth (HS 578T; Log10 Concentration −8.0): 90%
- GI50 (MDA-MB-468): 0.426 µM
- TGI (MDA-MB-468): 2 µM
- Percent Growth (MDA-MB-468; Log10 Concentration −4.0): −69%
- Percent Growth (MDA-MB-468; Log10 Concentration −5.0): −59%
- Percent Growth (MDA-MB-468; Log10 Concentration −6.0): 26%
- Percent Growth (MDA-MB-468; Log10 Concentration −7.0): 91%
- Percent Growth (MDA-MB-468; Log10 Concentration −8.0): 92%
- CC50 (MDA-MB-468; read-out: LC50): 7.76 µM
- GI50 (SK-OV-3): 12.7 µM
- TGI (SK-OV-3): 25.3 µM
- Percent Growth (SK-OV-3; Log10 Concentration −4.0): −100%
- Percent Growth (SK-OV-3; Log10 Concentration −5.0): 67%
- Percent Growth (SK-OV-3; Log10 Concentration −6.0): 107%
- Percent Growth (SK-OV-3; Log10 Concentration −7.0): 102%
- Percent Growth (SK-OV-3; Log10 Concentration −8.0): 98%
- CC50 (SK-OV-3; read-out: LC50): 50.4 µM
- GI50 (PC-3): 2.55 µM
- TGI (PC-3): 8.05 µM
- Percent Growth (PC-3; Log10 Concentration −4.0): −93%
- Percent Growth (PC-3; Log10 Concentration −5.0): −9%
- Percent Growth (PC-3; Log10 Concentration −6.0): 91%
- Percent Growth (PC-3; Log10 Concentration −7.0): 99%
- Percent Growth (PC-3; Log10 Concentration −8.0): 99%
- CC50 (PC-3; read-out: LC50): 30.5 µM
- GI50 (DU-145): 3.21 µM
- TGI (DU-145): 10.5 µM
- Percent Growth (DU-145; Log10 Concentration −4.0): −96%
- Percent Growth (DU-145; Log10 Concentration −5.0): 2%
- Percent Growth (DU-145; Log10 Concentration −6.0): 99%
- Percent Growth (DU-145; Log10 Concentration −7.0): 98%
- Percent Growth (DU-145; Log10 Concentration −8.0): 99%
- CC50 (DU-145; read-out: LC50): 33.8 µM
- GI50 (NCI-H322M): 12.6 µM
- TGI (NCI-H322M): 25.8 µM
- Percent Growth (NCI-H322M; Log10 Concentration −4.0): −94%
- Percent Growth (NCI-H322M; Log10 Concentration −5.0): 66%
- Percent Growth (NCI-H322M; Log10 Concentration −6.0): 104%
- Percent Growth (NCI-H322M; Log10 Concentration −7.0): 100%
- Percent Growth (NCI-H322M; Log10 Concentration −8.0): 100%
- CC50 (NCI-H322M; read-out: LC50): 52.9 µM
- GI50 (NCI-H522): 0.167 µM
- TGI (NCI-H522): 0.375 µM
- Percent Growth (NCI-H522; Log10 Concentration −4.0): −71%
- Percent Growth (NCI-H522; Log10 Concentration −5.0): −75%
- Percent Growth (NCI-H522; Log10 Concentration −6.0): −60%
- Percent Growth (NCI-H522; Log10 Concentration −7.0): 82%
- Percent Growth (NCI-H522; Log10 Concentration −8.0): 95%
- CC50 (NCI-H522; read-out: LC50): 0.845 µM

Source: patent publication US10118935B2, “Melampomagnolide B dimers” (priority 2014, dated 2018)
